Assay [1] concerns wildtype Wnt signaling cascade. As to the kind of experiment: HEK293 TOP Assay (Super TopFlash luciferase reporter, Wnt-3a stimulated). Format: cell-based. To be noted: Homo sapiens, HEK293, 16 h. In short, it runs like this:
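HEK293 cells stably carrying Super TopFlash (TOP) or FOP reporter, stimulated with recombinant human Wnt-3a (2500–5 ng/ml, two-fold steps). Both lines incubated in parallel with compound from 50 μM to 15 nM (3.16-fold) in CAFTY buffer pH 7.4 with 2 mM Ca2+ and 0.01% BSA; selectivity judged TOP vs FOP.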
Background: In a reporter assay the amount or activity of a reporter protein is the signal.

Assay [2] deals with HEK293 FOP control reporter cell line. In words: HEK293 FOP Assay (FOP control vector luciferase reporter). The assay is classed as cell-based. Particulars: Homo sapiens. Here is the method: In a parallel approach, HEK293 cells were cotransfected with the FOP control vector and pcDNA3. The FOP vector is identical to the TOP construct, but it contains instead of functional TCF elements a randomized, non-functional sequence. For this transfection a stable transfected cell line was generated as well, based on selection with Geneticin (1 mg/ml).
In preparation of the assay, the two cell lines were plated 24 hrs before beginning the test at 10000 cells per well in a 384 micro titre plate (MTP) in 30 μl growth medium. […] The recombinant human Wnt-3a was thereby applied between 2500 and 5 ng/ml in two-fold dilution steps.
Selective inhibitory activity for small molecules on the wildtype Wnt pathway was determined after parallel incubation of both (TOP and FOP) HEK293 reporter cell lines with a compound dilution series from 50 μM to 15 nM in steps of 3.16-fold dilutions in CAFTY buffer (130 mM sodium chloride, 5 mM potassium chloride, 20 mM HEPES, 1 mM magnesium chloride, 5 mM sodium bicarbonate, pH 7.4) containing 2 mM Ca^2+ and 0.01% BSA.
The compounds were thereby serially prediluted in 100% DMSO and thereafter 50 fold into the CAFTY compound dilution buffer (described above).

Where [3] appears, read: HEK293 TOP reporter cell line, Wnt-3a at EC50, 16 hours incubation, compound dilution series 50 μM to 15 nM.
Setting [4] is: HEK293 FOP control reporter cell line, 16 hours incubation, compound dilution series 50 μM to 15 nM.
Where [5] appears, read: HEK293 TOP reporter cells, Wnt3a at EC50, 16 hours, luciferase.
Setting [6] is: HEK293 FOP control reporter cells, 16 hours, luciferase, dilution series from 50 μM.

The term IC50 denotes the concentration at which inhibition is half-maximal. A higher IC50 goes with a need for much substance.

For `CCNC(=O)c1[nH]cnc1C(=O)Nc1ccc(NC(=O)c2ccc(F)cc2)cc1` [Example 137, N^5-ethyl-N^4-{4-[(4-fluorobenzoyl)amino]phenyl}-1H-imidazole-4,5-dicarboxamide], the IC50 in assay [1] (setting [3]) came to 2.35 µM; in assay [2] (setting [4]), 8 µM.
Take `CNC(=O)c1nc[nH]c1C(=O)Nc1ccc(NC(=O)c2c(F)cccc2F)cc1` [Example 38, N^5-{4-[(2,6-difluorobenzoyl)amino]phenyl}-N^4-methyl-1H-imidazole-4,5-dicarboxamide]: the IC50 was found to be 2.3 µM in assay [1] (setting [3]), 2.3 µM in assay [1] (setting [5]), 14 µM in assay [2] (setting [4]) and 14 µM in assay [2] (setting [6]).
In the case of `CN1CCN(CC(C)(C)NC(=O)c2[nH]cnc2C(=O)Nc2ccc(NC(=O)c3ccc(F)cc3)cc2)CC1` [Example 195, N^4-{4-[(4-fluorobenzoyl)amino]phenyl}-N^5-[2-methyl-1-(4-methylpiperazin-1-yl)propan-2-yl]-1H-imidazole-4,5-dicarboxamide], the results for the IC50 in assay [1] (setting [3]) and in assay [2] (setting [4]) were 1.01 µM and 12 µM, respectively.
In the same order, the values of `CNC(=O)c1nc[nH]c1C(=O)Nc1ccc(NC(=O)c2cc(Cl)cc(Cl)c2)cc1` [Example 327, N^5-{4-[(3,5-dichlorobenzoyl)amino]phenyl}-N^4-methyl-1H-imidazole-4,5-dicarboxamide] are 39.5 µM and 37 µM.
In the same order, the values of `CC(C)(CN1CCCCC1)NC(=O)c1[nH]cnc1C(=O)Nc1ccc(NC(=O)c2ccc(F)cc2)cc1` [Example 156, N^4-{4-[(4-fluorobenzoyl)amino]phenyl}-N^5-[2-methyl-1-(piperidin-1-yl)propan-2-yl]-1H-imidazole-4,5-dicarboxamide] are 2.5 µM and 15 µM.
In the same order, the values of `COC(=O)c1nc[nH]c1C(=O)Nc1ccc(NC(=O)c2ccccc2Cl)c(F)c1` [Example 79, methyl-5-({4-[(2-chlorobenzoyl)amino]-3-fluorophenyl}carbamoyl)-1H-imidazole-4-carboxylate] are 0.51 µM and 8.2 µM.
Take `CN1CCN(C(C)(C)CNC(=O)c2[nH]cnc2C(=O)Nc2ccc(NC(=O)c3ccccc3Cl)cc2)CC1` [Example 202, N^4-{4-[(2-chlorobenzoyl)amino]phenyl}-N^5-[2-methyl-2-(4-methylpiperazin-1-yl)propyl]-1H-imidazole-4,5-dicarboxamide]: the results for the IC50 in assay [1] (setting [3]) and in assay [2] (setting [4]) were 1.6 µM and 9.8 µM, respectively.
In the same order, the values of `CNC(=O)c1nc[nH]c1C(=O)Nc1ccc(NC(=O)c2cccc(F)c2F)cc1` [Example 319, N^5-{4-[(2,3-difluorobenzoyl)amino]phenyl}-N^4-methyl-1H-imidazole-4,5-dicarboxamide] are 8.9 µM and 37 µM.
`CNC(=O)c1nc[nH]c1C(=O)Nc1ccc(NC(=O)c2cc(C)ccc2C)cc1` [Example 307, N^5-{4-[(2,5-dimethylbenzoyl)amino]phenyl}-N^4-methyl-1H-imidazole-4,5-dicarboxamide]: the IC50 in assay [1] (setting [3]) was 1.08 µM; in assay [2] (setting [4]), 18 µM.
For `CC(C)(C)CNC(=O)c1[nH]cnc1C(=O)Nc1ccc(NC(=O)c2ccc(F)cc2)cc1` [Example 149, N^5-(2,2-dimethylpropyl)-N^4-{4-[(4-fluorobenzoyl)amino]phenyl}-1H-imidazole-4,5-dicarboxamide], the IC50 was 5.2 µM in assay [1] (setting [3]) and 22 µM in assay [2] (setting [4]).
Taken in the same sequence, the figures for `CN1CCN(NC(=O)c2[nH]cnc2C(=O)Nc2ccc(NC(=O)c3ccccc3Cl)cc2)CC1` [Example 302, N^4-{4-[(2-chlorobenzoyl)amino]phenyl}-N^5-(4-methylpiperazin-1-yl)-1H-imidazole-4,5-dicarboxamide] were 1.06 µM and 26 µM.
In the same order, the values of `CC(C)c1nc(C(=O)Nc2ccc(NC(=O)c3ccc(F)cc3Cl)cc2)c(C(=O)NCCN(C)C)[nH]1` [Example 107, N^4-{4-[(2-chloro-4-fluorobenzoyl)amino]phenyl}-N^5-[2-(dimethylamino)ethyl]-2-isopropyl-1H-imidazole-4,5-dicarboxamide] are 7.25 µM and 39 µM.
Taken in the same sequence, the figures for `CC1CCCN(CCNC(=O)c2[nH]cnc2C(=O)Nc2ccc(NC(=O)c3ccc(F)cc3)cc2)C1` (stereo not drawn) [Example 211, N^4-{4-[(4-fluorobenzoyl)amino]phenyl}-N^5-[2-(3-methylpiperidin-1-yl)ethyl]-1H-imidazole-4,5-dicarboxamide] were 0.77 µM and 24 µM.
Take `CNC(=O)c1nc[nH]c1C(=O)Nc1ccc(NC(=O)c2ccc(N(C)C)cc2)cc1` [Example 315, N^5-(4-{[4-(dimethylamino)benzoyl]amino}phenyl)-N^4-methyl-1H-imidazole-4,5-dicarboxamide]: the values for the IC50 in assay [1] (setting [3]) and in assay [2] (setting [4]) were 14 µM and 41 µM, respectively.
In the same order, the values of `COC(=O)c1nc[nH]c1C(=O)Nc1ccc(NC(=O)c2ccc(F)cc2)c(C)c1` [Example 90, methyl-5-({4-[(4-fluorobenzoyl)amino]-3-methylphenyl}carbamoyl)-1H-imidazole-4-carboxylate] are 4.9 µM and 13 µM.
Taken in the same sequence, the figures for `COc1cc(NC(=O)c2[nH]cnc2C(=O)NCCN2CCCCC2)ccc1NC(=O)c1ccc(F)cc1` [Example 105, N^5-{4-[(4-fluorobenzoyl)amino]-3-methoxyphenyl}-N^4-[2-(piperidin-1-yl)ethyl]-1H-imidazole-4,5-dicarboxamide] were 1.65 µM and 29 µM.
Take `CC1CN(CCNC(=O)c2[nH]cnc2C(=O)Nc2ccc(NC(=O)c3ccccc3Cl)cc2)CC(C)O1` (stereo not drawn) [Example 300, N^4-{4-[(2-chlorobenzoyl)amino]phenyl}-N^5-[2-(2,6-dimethylmorpholin-4-yl)-ethyl]-1H-imidazole-4,5-dicarboxamide]: the IC50 turned out to be 0.56 µM in assay [1] (setting [3]) and 31 µM in assay [2] (setting [4]).
As to `O=C(Nc1ccc(NC(=O)c2[nH]cnc2C(=O)N2CC3(COC3)C2)cc1)c1ccc(F)cc1` [Example 34, N-{4-[(4-fluorobenzoyl)amino]phenyl}-5-(2-oxa-6-azaspiro[3.3]hept-6-ylcarbonyl)-1H-imidazole-4-carboxamide], the IC50 was 12 µM in assay [1] (setting [3]), 12 µM in assay [1] (setting [5]) and ≥ 50 µM in assay [2] (setting [6]).
Take `CC(CNC(=O)c1[nH]cnc1C(=O)Nc1ccc(NC(=O)c2ccccc2Cl)cc1)N1CCN(C)CC1` (stereo not drawn) [Example 186, N^4-{4-[(2-chlorobenzoyl)amino]phenyl}-N^5-[2-(4-methylpiperazin-1-yl)propyl]-1H-imidazole-4,5-dicarboxamide]: the IC50 worked out at 0.42 µM in assay [1] (setting [3]) and 28 µM in assay [2] (setting [4]).
On to `Cc1cc(NC(=O)c2[nH]cnc2C(=O)NCCN(C)C)ccc1NC(=O)c1ccc(F)cc1` [Example 92, N^4-[2-(dimethylamino)ethyl]-N^5-{4-[(4-fluorobenzoyl)amino]-3-methylphenyl}-1H-imidazole-4,5-dicarboxamide], for which the IC50 in assay [1] (setting [3]) is 6.95 µM; in assay [2] (setting [4]), 13 µM.
In the same order, the values of `O=C(Nc1ccc(NC(=O)c2nc[nH]c2C(=O)NCCCCN2CCCCC2)cc1)c1ccc(F)cc1` [Example 201, N^4-{4-[(4-fluorobenzoyl)amino]phenyl}-N^5-[4-(piperidin-1-yl)butyl]-1H-imidazole-4,5-dicarboxamide] are 4.5 µM and 0.03 µM.

The record behind these values is US9884063B2, “Amido-substituted azole compounds” (Bayer Pharma Aktiengesellschaft, priority 2014, dated 2018).
